Data as given in patent US9221872B2, “Peptides and peptidomimetics in combination uses and treatments for cancer patient subpopulations” (priority 2013, dated 2015).
Where a SMILES comes first, the peptide text is derived from it. Where no end group is shown, it is not given here. [ ]: non-standard residue; d: D form. dPhe(F5) = N[C@H](Cc1c(F)c(F)c(F)c(F)c1F)C(=O)O; dBpa = N[C@H](Cc1ccc(C(=O)c2ccccc2)cc1)C(=O)O; dCha = N[C@H](CC1CCCCC1)C(=O)O

Key:
Jurkat cells [1] = test: G2 checkpoint abrogation, bleomycin treated Jurkat cells, flow cytometry; assay type: cell-based, human; conditions: for G2 checkpoint abrogating activity: bleomycin treated Jurkat cells
Experimental: Cell-Cycle Analysis The cell cycle status of the cells treated with bleomycin or adriamcin were analyzed by flow cytometry as described by Kawabe (1997) Nature 385:454-458. In brief, two million cells were re-suspended and incubated in 200 μl Krishan's solution (0.1% Sodium citrate, 50 μg/ml PI, 20 μg/ml RNase A and 0.5% NP-40) for 1 hr at 4° C. and analyzed by a flow cytometry, FACScan™ (Beckton Dickinson, Mountain View, Calif.) with the program CELLQuest™ (Beckton Dickinson).
Flow cytometry analysis of G2 checkpoint abrogation was performed using human leukemia derived Jurkat cell line. In brief, cultured cells were treated with various doses of peptide/peptidomimetic and 40 μg/ml bleomycine for 24 hr. The DNA of the cells was stained with propidium iodide and analyzed by flow cytometry.
(§1) The “Appearance of side effect when used alone” indicates the peptide/peptidomimetic dose that produced Jurkat cell cycle disturbance, i.e., the appearance of significant amounts of SubG1 cells (dead cells) or cells in which the DNA content of each varies more than usual. […] The “G2 abrogating dose” indicates the peptide/peptidomimetic dose with 40 μg/ml bleomycine that produced detectable G2 checkpoint abrogation activity following treatment for 24 hours. The “Appearance of side effect when used with colchicine” indicates the peptide/peptidomimetic dose with 5 μg/ml colchicine that produced Jurkat cell cycle disturbance following treatment for 24 hours.
(§2) A comparison between G2 checkpoint abrogating activity and non specific toxicity (M checkpoint abrogation) by CB501 was performed. In brief, Jurkat cells were treated with 40 μg/ml bleomycin or 0.5 μg/ml colchicine for G2 checkpoint abrogating activity and non specific toxicity, respectively. The DNA amount in each of the treated cells was analyzed by flow cytometry, as previously described.

HUVEC cells = test: G2 checkpoint abrogation by CBP501 combined with cis-platin in various cell lines; assay type: cell-based, human; conditions: cis-platin 3 μg/ml, 3 hr, then 45 hr
Experimental: The medium was aspirated, fresh medium without these compounds was added and the cells were incubated for an additional 45 hr. The cells including floating cells were harvested using trypsin-EDTA solution, incubated with Krishan's solution and analyzed for DNA content by flow cytometry as previously described.

[2] = test system: MIAPaCa2 human pancreatic carcinoma cells; test: Colony formation analysis of MIAPaCa2 cells; conditions: CBP501 10 μM, cisplatin or oxaliplatin 1, 3 or 9 μg/ml, 3 hours, 10 days
Experimental: Briefly, cells were plated at 300 cells/well in 6 well plates, incubated overnight, and treated with the compounds for three hours. The medium was changed and cultured for an additional 10 days. Cells were subsequently fixed with 70% methanol, stained with 0.1% crystal violet and visualized.

non-squamous NSCLC = test: Phase II randomized study, cisplatin and pemetrexed with or without CBP501; assay type: in vivo, human; conditions: for Hazard Ratio OS: Arm A vs Arm B
Experimental: Clinical Study Design: Open-label, multicenter, phase II randomized, two-arm, comparative study. The protocol evaluated full-dose cisplatin and pemetrexed with or without CBP501. […] Randomization was stratified according to baseline stage of disease (IIIb vs IV), presence of brain metastasis and whether or not patients were eligible for bevacizumab therapy.
A cycle was considered to be 3 weeks (21 days).
3. Cisplatin 75 mg/m^2 was administered as a 1-hour i.v. infusion immediately after the pemetrexed infusion.
Cox proportional hazards model was employed to estimate the hazard ratio (HR) for PFS between the 2 treatment arms. The model included the treatment arm as a factor as well as the randomization stratification factors. The following covariates were explored: age, gender, race (Caucasian/non-Caucasian), prior surgery/procedure (yes/no), prior radiotherapy (yes/no), x-ray interpretation (normal/abnormal), ECG interpretation (normal/abnormal), bone scan (normal/abnormal), and time from diagnosis. Any continuous variables such as age and time from diagnosis to study treatment could have been converted into categorical variables by specifying 2 or several classes of values if a better model fit would result. The exploratory variables were entered using a stepwise regression algorithm using the following criteria: a variable must be significant at the 0.25 level to be entered into the model and significant at 0.15 level to remain in the model. For the final model, the point estimate of the hazard ratios were provided along with 95% CIs.
Subgroup analyses were conducted for patients that had […] at screening. Additional subgroup analysis was performed with a software GraphPad Prism 5 with raw data on each patients analyzed.

MIAPaCa2 = test: Sub-G1 (dead cell) analysis of MIAPaCa2 treated with bleomycin or adriamycin; assay type: cell-based, human; conditions: bleomycine 10 μg/ml or adriamycin 1 μg/ml, 3 hours, then 21 hours
Experimental: The G2 checkpoint abrogating activity of various compounds at different doses on human pancreatic cancer derived cell line MIAPaCa2 treated with bleomycine (Bleo) or adriamycin (ADR) was studied. Briefly, cells were incubated with the compounds and bleomycine (10 μg/ml) or adriamycin (1 μg/ml) for 3 hours. The medium was changed and incubated for an additional 21 hours. Harvested cells were stained for DNA by propium iodide and analyzed with flow cytometry as previously described. The % of the sub-G1 cell population is indicated as dead cells in FIG. 3.

M1 and M2 macrophages = test: Phagocytic activity of M1 and M2 macrophages, fluorescent beads; assay type: cell-based, human
Experimental: Referring to FIG. 19, macrophages were obtained by stimulating human peripheral blood mononuclear cells by 0.32 uM of PMA and removing all suspension cells 48 hours of PMA stimulation. The cells were further incubated with 50 ng/ml IFN-gamma, 10 ng/ml LPS to obtain M1 phenotype, and 20 ng/ml IL-4 to obtain M2 macrophages. Both treatment was with or without CBP501. The phagocytic activity was monitored by using fluorescent labelled beads and flow cytometry.

HUVEC = test: Growth of normal human umbilical endothelial cells; assay type: cell-based
Experimental: Similar studies were performed using normal human umbilical endothelial cells (HUVEC).

[3] = Mouse serum treatment analysis, residual CBP501 quantity by HPLC; assay type: in vitro ADME; conditions: mouse serum (table title), 37 degree
[4] = cited from earlier work
[5] = test system: CBP501-sensitive tumor cells; conditions: cited from earlier work
Jurkat cells [6] = test: M phase checkpoint abrogation / non specific toxicity, colchicine treated Jurkat cells; assay type: cell-based
Experimental: Flow cytometry analysis of M phase checkpoint abrogation by the compounds was performed using human T cell leukemia Jurkat cell line treated with colchicine (5 μg/ml or 0.5 μg/ml) and various doses of peptide/peptidomimetics for 24 hr (FIG. 12). The DNA of the cells was stained and analyzed by flow cytometry as described above.
as §1, §2

[7] = test system: MIAPaCa2 human pancreatic carcinoma; test: MIAPaCa2 subcutaneous tumor in scid mice; assay type: in vivo, mouse
Experimental: To study in vivo efficacy of the compounds, MIAPaCa2 human pancreatic carcinoma cells were implanted subcutaneously in scid mice. The treatment was initiated when the size of the primary tumor became 0.1 cm3 (Day0) or larger, e.g., 7 or 8 mm in diameter. CDDP (3 mg/kg) and CBP 501 (10 or 40 mg/kg) were intra-peritoneally administered alone or in combination. Tumor sizes were measured using calipers three times a week, and volumes were calculated using the formula: weight(mg)=[width (mm)2×length (mm)]/2. Mean tumor sizes for each treatment group are plotted (n=4) against the days after the start of treatment (FIG. 10).

(d-Arg)(d-Arg)(d-Bpa)(d-Arg)(d-Arg)(d-Arg)(d-Phe-2,3,4,5,6-F)(d-Cha) ([dR][dR][dBpa][dR][dR][dR][dPhe(F5)][dCha]) [CBP700]
G2 checkpoint abrogating activity (Jurkat cells [1]): retain G2 checkpoint abrogating activity comparable to other peptides having significant G2 checkpoint abrogating activity

(d-Arg)(d-Arg)(d-Arg)(d-Arg)(d-Bpa)(d-Arg)(d-Trp)(d-Arg)(d-Phe-2,3,4,5,6-F)(d-Cha) ([dR][dR][dR][dR][dBpa][dR][dW][dR][dPhe(F5)][dCha]) [CBP702]
G2 checkpoint abrogating activity (Jurkat cells [1]): retain G2 checkpoint abrogating activity comparable to other peptides having significant G2 checkpoint abrogating activity

(d-Arg)(d-Arg)(d-Arg)(d-Bpa)(d-Arg)(d-Trp)(d-Arg)(d-Phe-2,3,4,5,6-F)(d-Cha) ([dR][dR][dR][dBpa][dR][dW][dR][dPhe(F5)][dCha]) [CBP701]
G2 checkpoint abrogating activity (Jurkat cells [1]): retain G2 checkpoint abrogating activity comparable to other peptides having significant G2 checkpoint abrogating activity

(d-Arg)(d-Arg)(d-Arg)(d-Bpa)(d-Arg)(d-Arg)(d-Arg)(d-Phe-2,3,4,5,6-F)(d-Cha) ([dR][dR][dR][dBpa][dR][dR][dR][dPhe(F5)][dCha]) [CBP703]
G2 checkpoint abrogating activity (Jurkat cells [1]): retain G2 checkpoint abrogating activity comparable to other peptides having significant G2 checkpoint abrogating activity

N=C(N)NCCC[C@@H](NC(=O)[C@@H](CCCNC(=N)N)NC(=O)[C@@H](CCC(N)=O)NC(=O)[C@@H](CCCNC(=N)N)NC(=O)[C@@H](CCCNC(=N)N)NC(=O)[C@@H](CCCNC(=N)N)NC(=O)[C@@H](CC1CCCCC1)NC(=O)[C@@H](Cc1c(F)c(F)c(F)c(F)c1F)NC(=O)[C@@H](CO)NC(=O)[C@@H](Cc1c[nH]c2ccccc12)NC(=O)[C@@H](CO)NC(=O)[C@H](N)Cc1ccc(C(=O)c2ccccc2)cc1)C(=O)O [CBP501, (d-Bpa)(d-Ser)(d-Trp)(d-Ser)(d-Phe-2,3,4,5,6-F)(d-Cha)(d-Arg)(d-Arg)(d-Arg)(d-Gln)(d-Arg)(d-Arg)] (H-[dBpa][dS][dW][dS][dPhe(F5)][dCha][dR][dR][dR][dQ][dR][dR]-OH; N-terminus and C-terminus assumed)
Dose up to which HUVEC cells were not sensitized to cisplatin (HUVEC cells): > 50 µM
Effect on cyto-toxic activity of platinum drugs, colony formation [2]: enhanced the cyto-toxic activity of both cisplatin and oxaliplatin
Hazard Ratio OS (non-squamous NSCLC; ALL treated, exploring other covariates): 0.77
Hazard Ratio OS (non-squamous NSCLC; ALL treated, without exploring other covariates): 0.96
Hazard Ratio OS (non-squamous NSCLC; WBC <10000/μL at screening, exploring other covariates): 0.69
Hazard Ratio OS (non-squamous NSCLC; WBC <10000/μL at screening, without exploring other covariates): 0.80
Survival benefit from addition to pemetrexed plus cisplatin (non-squamous NSCLC; all treated population): no statistically significant survival benefit
Survival benefit from addition to pemetrexed plus cisplatin (non-squamous NSCLC; sub-group with normal or low WBC at screening): provided a benefit
Sensitization to DNA damaging agents (% sub-G1 cells) (MIAPaCa2): sensitized MIAPaCa2 cells to both bleomycin and adriamycin in a dose dependent manner
Phagocytosis of macrophages in vitro (M1 and M2 macrophages): inhibited phagocytosis of both M1 and M2 macrophages
Effect on growth of normal cells (HUVEC): does not affect the growth of HUVEC cells
Residual peptide after 1 hr serum treatment [3]: >90%
Dose limiting allergic reactions (grade 3) ([4]; CBP501 36.4 mg/m^2 and cisplatin 75 mg/m^2): two out of six patients experienced allergic reactions
MTD in patients ([4]; in combination with cisplatin 75 mg/m^2, once every 21 days): 24.3 mg/m^2
Platinum concentration and platinum-DNA adduct formation [5]: increase platinum concentration and platinum-DNA adduct formation
Effect on M phase cell cycle arrest induced by colchicine (Jurkat cells [6]): does not affect M phase cell cycle arrest and/or non specific toxicity induced by colchicine
Dose up to which non specific toxicity (M checkpoint abrogation) was absent (Jurkat cells [6]; 0.5 μg/ml colchicine): > 50 µM
G2 checkpoint abrogating activity (Jurkat cells [1]): abrogated in a dose dependent manner
Tumor growth, treatment alone ([7]; CBP501 10 or 40 mg/kg intra-peritoneally): suppresses the growth of human pancreatic cancer cell in vivo
Tumor growth, combination with cisplatin ([7]; CDDP 3 mg/kg and CBP501 10 or 40 mg/kg intra-peritoneally): increased the anti-tumor activity of cisplatin

N=C(N)NCCC[C@H](NC(=O)CNC(=O)[C@@H](N)Cc1ccc(O)cc1)C(=O)N[C@@H](CCCCN)C(=O)N[C@@H](CCCCN)C(=O)N[C@@H](CCCNC(=N)N)C(=O)N[C@@H](CCCNC(=N)N)C(=O)N[C@@H](CCC(N)=O)C(=O)N[C@@H](CCCNC(=N)N)C(=O)N[C@@H](CCCNC(=N)N)C(=O)N[C@@H](CCCNC(=N)N)C(=O)N[C@@H](CC1CCCCC1)C(=O)N[C@@H](Cc1c(F)c(F)c(F)c(F)c1F)C(=O)N[C@@H](CCCNC(=N)N)C(=O)N[C@@H](CO)C(=O)N1CCC[C@H]1C(=O)N[C@@H](CO)C(=O)N[C@@H](Cc1ccc(O)cc1)C(=O)N[C@@H](Cc1ccc(O)cc1)C(=O)O [CBP413, (l-Tyr)(l-Gly)(l-Arg)(l-Lys)(l-Lys)(l-Arg)(l-Arg)(l-Gln)(l-Arg)(l-Arg)(l-Arg)(l-Cha)(l-Phe-2,3,4,5,6-F)(l-Arg)(l-Ser)(l-Pro)(l-Ser)(l-Tyr)(l-Tyr)]
G2 abrogating dose (Jurkat cells [1]; with 40 μg/ml bleomycine, 24 hours): ≧1.56 μM
